Reference: the supplement of paper PMC10307832

Key:
Test in all cases: relative viability (nuclei count vs DMSO), 5 days (fraction); higher = more cells survive
Pictilisib + Bortezomib = compound: CS(=O)(=O)N1CCN(Cc2cc3nc(-c4cccc5[nH]ncc45)nc(N4CCOCC4)c3s2)CC1 [Pictilisib] + CC(C)C[C@H](NC(=O)[C@H](Cc1ccccc1)NC(=O)c1cnccn1)B(O)O [Bortezomib] (partner 0.002 µM)
How it was run: (§1)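 Each reported value is a median over duplicate plates. It expresses relative viability: treated-well nuclei count divided by vehicle-well nuclei count. Lung cancer cell lines in 1536-well plates were dosed by pin tool a day after seeding, alone with one drug or with a fixed anchor-drug dose plus five library-drug doses (not always all listed) in √10 steps, and nuclei were counted after 5 days.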

Pictilisib + Navitoclax = compound: CS(=O)(=O)N1CCN(Cc2cc3nc(-c4cccc5[nH]ncc45)nc(N4CCOCC4)c3s2)CC1 [Pictilisib] + CC1(C)CCC(c2ccc(Cl)cc2)=C(CN2CCN(c3ccc(C(=O)NS(=O)(=O)c4ccc(N[C@H](CCN5CCOCC5)CSc5ccccc5)c(S(=O)(=O)C(F)(F)F)c4)cc3)CC2)C1 [Navitoclax] (partner 0.5 µM)
How it was run: as §1

Pictilisib + Decitabine = compound: CS(=O)(=O)N1CCN(Cc2cc3nc(-c4cccc5[nH]ncc45)nc(N4CCOCC4)c3s2)CC1 [Pictilisib] + Nc1ncn([C@H]2C[C@H](O)[C@@H](CO)O2)c(=O)n1 [Decitabine] (partner 2 µM)
How it was run: as §1

MK-2206 + Tozasertib = compound: NC1(c2ccc(-c3nc4ccn5c(=O)[nH]nc5c4cc3-c3ccccc3)cc2)CCC1 [MK-2206] + Cc1cc(Nc2cc(N3CCN(C)CC3)nc(Sc3ccc(NC(=O)C4CC4)cc3)n2)n[nH]1 [Tozasertib] (partner 0.1 µM)
How it was run: as §1

MK-2206 + Olaparib = compound: NC1(c2ccc(-c3nc4ccn5c(=O)[nH]nc5c4cc3-c3ccccc3)cc2)CCC1 [MK-2206] + O=C(c1cc(Cc2n[nH]c(=O)c3ccccc23)ccc1F)N1CCN(C(=O)C2CC2)CC1 [Olaparib] (partner 8 µM)
How it was run: as §1

Cell Line | relative viability (Pictilisib + Bortezomib; first compound 0.02 µM) | relative viability (Pictilisib + Bortezomib; first compound 0.06325 µM) | relative viability (Pictilisib + Bortezomib; first compound 0.6325 µM) | relative viability (Pictilisib + Bortezomib; first compound 2 µM) | relative viability (Pictilisib + Navitoclax; first compound 0.02 µM) | relative viability (Pictilisib + Navitoclax; first compound 0.06325 µM) | relative viability (Pictilisib + Navitoclax; first compound 0.6325 µM) | relative viability (Pictilisib + Navitoclax; first compound 2 µM) | relative viability (Pictilisib + Decitabine; first compound 0.02 µM) | relative viability (Pictilisib + Decitabine; first compound 0.06325 µM) | relative viability (Pictilisib + Decitabine; first compound 0.6325 µM) | relative viability (Pictilisib + Decitabine; first compound 2 µM) | relative viability (MK-2206 + Tozasertib; first compound 0.01 µM) | relative viability (MK-2206 + Tozasertib; first compound 0.03162 µM) | relative viability (MK-2206 + Tozasertib; first compound 0.3162 µM) | relative viability (MK-2206 + Tozasertib; first compound 1 µM) | relative viability (MK-2206 + Olaparib; first compound 0.01 µM) | relative viability (MK-2206 + Olaparib; first compound 0.03162 µM) | relative viability (MK-2206 + Olaparib; first compound 0.3162 µM) | relative viability (MK-2206 + Olaparib; first compound 1 µM)
NCI-H2085 | 1.08 | 1.07 | 0.871 | 0.467 | 1.08 | 1.17 | 0.864 | 0.416 | 0.521 | 0.631 | 0.511 | 0.369 | 0.781 | 0.793 | 0.786 | 0.716 | 0.778 | 0.858 | 0.786 | 0.732
NCI-H2087 | 0.733 | 0.772 | 0.953 | 0.503 | 1.04 | 0.945 | 0.943 | 0.674 | 0.212 | 0.344 | 0.189 | 0.151 | 0.26 | 0.242 | 0.223 | 0.259 | 0.641 | 0.552 | 0.592 | 0.51
NCI-H2126 | 1.05 | 1.15 | 1.07 | 0.923 | 0.855 | 0.836 | 0.747 | 0.636 | 0.559 | 0.57 | 0.473 | 0.494 | 0.814 | 0.897 | 0.822 | 0.775 | 0.932 | 1.01 | 0.87 | 0.925
NCI-H2347 | 1.05 | 1.12 | 0.938 | 0.567 | 0.865 | 0.874 | 0.75 | 0.528 | 0.663 | 0.658 | 0.579 | 0.502 | 0.521 | 0.631 | 0.561 | 0.496 | 0.618 | 0.541 | 0.58 | 0.503
NCI-H2405 | 1.03 | 0.961 | 0.919 | 0.651 | 0.981 | 0.871 | 0.594 | 0.5 | 0.765 | 0.72 | 0.571 | 0.388 | 0.818 | 0.799 | 0.662 | 0.635 | 0.837 | 0.899 | 0.875 | 0.825
NCI-H3122 | 0.99 | 1.05 | 1.04 | 0.601 | 0.986 | 1.04 | 0.966 | 0.475 | 0.443 | 0.412 | 0.287 | 0.115 | 0.366 | 0.39 | 0.469 | 0.169 | 0.681 | 0.687 | 0.656 | 0.63
PC-3 [JPC-3] | 0.795 | 0.87 | 0.896 | 0.811 | 0.758 | 0.749 | 0.803 | 0.496 | 0.84 | 0.92 | 0.813 | 0.748 | 0.874 | 0.83 | 0.873 | 0.899 | 1.09 | 1.12 | 1.18 | 1.12
PC-14 | 1.04 | 0.794 | 0.89 | 0.573 | 1.03 | 1.06 | 1.06 | 0.739 | 0.245 | 0.254 | 0.302 | 0.322 | 0.593 | 0.653 | 0.587 | 0.642 | 0.274 | 0.313 | 0.371 | 0.354
RERF-LC-KJ | 1.13 | 1.13 | 1.09 | 0.672 | 0.93 | 0.728 | 0.91 | 0.5 | 0.711 | 0.618 | 0.54 | 0.479 | 0.538 | 0.529 | 0.461 | 0.364 | 0.885 | 0.93 | 0.874 | 0.81
SK-LU-1 | 1.64 | 1.27 | 0.81 | 0.63 | 0.972 | 1.04 | 0.624 | 0.41 | 0.612 | 0.695 | 0.559 | 0.525 | 0.212 | 0.334 | 0.376 | 0.291 | 0.47 | 0.457 | 0.47 | 0.371
SW 1573 | 0.822 | 1.08 | 0.775 | 0.333 | 0.804 | 0.951 | 0.742 | 0.348 | 0.688 | 0.587 | 0.354 | 0.285 | 0.242 | 0.152 | 0.175 | 0.127 | 0.5 | 0.466 | 0.396 | 0.393
